From patent publication US20220202964A1, “HEPARANASE COMPOUNDS AND METHODS OF USE” (University of Florida Research Foundation, Incorporated, priority 2019, published 2022)

Tests used:
Chondroitinase ABC = molecular target: T1, Chondroitinase ABC (Proteus vulgaris, UniProt P59807); test: Fluorescence response to biological species: chondroitinase; type: biochemical; conditions: 5 μM; chondroitinase 5 μg (50 μg also tested); 4 h, 37° C.
T1 sequence (P59807 25-1021): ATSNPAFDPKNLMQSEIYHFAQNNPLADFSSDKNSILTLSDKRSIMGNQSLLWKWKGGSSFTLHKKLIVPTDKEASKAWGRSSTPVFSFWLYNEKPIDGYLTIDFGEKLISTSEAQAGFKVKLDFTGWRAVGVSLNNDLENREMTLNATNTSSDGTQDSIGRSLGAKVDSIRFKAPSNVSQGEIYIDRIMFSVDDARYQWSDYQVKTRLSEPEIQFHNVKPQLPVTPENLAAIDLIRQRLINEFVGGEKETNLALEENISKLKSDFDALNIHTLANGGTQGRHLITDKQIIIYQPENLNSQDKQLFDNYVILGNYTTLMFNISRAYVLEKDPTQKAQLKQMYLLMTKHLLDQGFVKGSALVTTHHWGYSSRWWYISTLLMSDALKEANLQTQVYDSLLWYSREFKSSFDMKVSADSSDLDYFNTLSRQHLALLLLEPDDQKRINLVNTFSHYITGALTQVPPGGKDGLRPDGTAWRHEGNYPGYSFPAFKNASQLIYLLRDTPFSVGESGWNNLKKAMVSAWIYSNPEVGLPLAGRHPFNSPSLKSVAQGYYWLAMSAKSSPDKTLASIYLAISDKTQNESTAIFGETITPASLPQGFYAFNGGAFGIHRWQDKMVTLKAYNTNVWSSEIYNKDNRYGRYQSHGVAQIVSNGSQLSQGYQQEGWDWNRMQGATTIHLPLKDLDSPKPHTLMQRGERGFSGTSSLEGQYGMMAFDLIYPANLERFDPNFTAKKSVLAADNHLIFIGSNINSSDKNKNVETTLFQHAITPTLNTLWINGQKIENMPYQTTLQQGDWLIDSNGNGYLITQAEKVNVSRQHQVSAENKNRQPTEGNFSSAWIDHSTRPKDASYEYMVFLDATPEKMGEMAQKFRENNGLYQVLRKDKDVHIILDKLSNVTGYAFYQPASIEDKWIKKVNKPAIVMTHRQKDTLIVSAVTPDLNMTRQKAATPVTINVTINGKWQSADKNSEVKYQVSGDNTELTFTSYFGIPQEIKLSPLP
Procedure: (§1) 5 μM compound 1 (HADP) was incubated with various biological species at the indicated amount/concentration in 96-well microplate. Cysteine (5 mM), Glutathione (5 mM), H2O2 (100 μM), Esterase, Chondroitinase ABC, Hyaluronidase, Lysozyme, β-Glucuronidase, β-Glucosidase (5 μg each) and heparanase (2 μg). For Chondroitinase ABC and Hyaluronidase, 50 μg was also tested. Each sample was performed in triplicates. Then the microplate was sealed with sealing film and incubated at 37° C. for 4 hours. Fluorescence intensity was recorded on Spectramax M5 Multimode plate reader (Molecular Devices, USA). λex/em=365 nm/455 nm.

heparanase = molecular target: T2, heparanase (Homo sapiens, UniProt Q9Y251); test: Activation of compounds by recombinant heparanase (fluorescence response); type: biochemical
T2 sequence (Q9Y251 36-543): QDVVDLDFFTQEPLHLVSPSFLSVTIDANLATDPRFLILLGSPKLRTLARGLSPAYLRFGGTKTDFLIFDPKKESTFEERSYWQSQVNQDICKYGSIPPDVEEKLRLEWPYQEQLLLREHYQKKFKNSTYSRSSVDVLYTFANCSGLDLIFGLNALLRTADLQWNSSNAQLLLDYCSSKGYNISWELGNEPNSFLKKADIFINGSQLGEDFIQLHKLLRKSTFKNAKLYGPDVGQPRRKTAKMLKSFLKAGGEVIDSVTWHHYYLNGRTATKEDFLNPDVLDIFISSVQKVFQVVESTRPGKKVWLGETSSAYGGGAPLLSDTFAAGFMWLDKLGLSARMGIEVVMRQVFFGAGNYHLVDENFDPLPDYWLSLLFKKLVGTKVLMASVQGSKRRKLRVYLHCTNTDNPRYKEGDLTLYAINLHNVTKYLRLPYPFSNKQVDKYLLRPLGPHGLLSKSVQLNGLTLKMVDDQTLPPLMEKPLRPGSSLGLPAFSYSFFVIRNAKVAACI
Procedure: To a solution of 20 μL, of 50 μM compound 1 (HADP) and 160 μL 40 mM NaOAc (pH=5.0) was added 20 μL, 0.1 μg/μL heparanase to obtain 5 μM 1 (HADP) with 2 μg heparanase solution. After incubation at 37° C. for 2 h, the reaction solution was transferred to quartz cuvettes to measure absorbance or fluorescence. Absorbance spectrum scan range from 250 nm to 500 nm (1 nm increment). fluorescence spectrum setting: λex=365 nm, Slit Width 2.5 nm. Emission was record from 400 nm to 600 nm, Slit Width 5 nm. Absorption spectra were recorded on Shimadzu UV-2700 UV-VIS Spectrophotometer. Fluorescence spectra were recorded on Fluorolog TAU-3 Spectrofluorometer with a xenon lamp (Jobin Yvon-Spex, Instruments S. A., Inc.)
Fluorescence micro cells was charged with 20 μL, of 50 μM compound 1 (HADP) and 160 μL 40 mM NaOAc (pH=5.0). Then 20 μL, 0.05 μg/μL heparanase was added to the above solution. Fluorescence spectra were recorded from 0 min to 3 h. fluorescence spectrum setting: λex=365 nm, Slit Width 2.5 nm. Emission was record from 400 nm to 600 nm, Slit Width 5 nm.
To a solution of 20 μL, of 50 μM each compound and 160 μL, 40 mM NaOAc (pH=5.0) was added 20 μL, 0.05 μg/μL heparanase to obtain 5 μM each compound with 1 μg heparanase solution in 96-well microplate. Each compound was performed in triplicate. Then the microplate was sealed with sealing film and incubated at 37° C. Fluorescence intensity was recorded on Spectramax M5 Multimode plate reader (Molecular Devices, USA) at each timepoint. λex/em=365 nm/455 nm.
as §1

[1] = Fluorescence response to biological oxidizing and reducing species; conditions: 5 μM; 100 μM H2O2, 5 mM GSH and Cys; 4 h, 37° C.
Procedure: as §1

[2] = Selectivity toward heparanase against interfering biological molecules and enzymes; type: biochemical
Procedure: as §1

Hyaluronidase = test: Fluorescence response to biological species: hyaluronidase; type: biochemical; conditions: 5 μM; hyaluronidase 5 μg (50 μg also tested); 4 h, 37° C.
Procedure: as §1

fluorescence response towards heparanase (heparanase; 5 μM compound, 1 μg heparanase, 40 mM NaOAc buffer (pH 5.0), 37° C., λex/em=365 nm/455 nm): significant fluorescence enhancement | fluorescence enhancement turn-on ratio at 450 nm (heparanase; 5 μM, heparanase 2 μg (0.01 μgμl-1), after 2 hours, NaOAc pH 5.0): up to 756 fold | fluorescence off-on response to heparanase in selectivity panel (heparanase; 5 μM, heparanase 2 μg, 4 h, 37° C.): largest “off-on” response | time at which fluorescence reached a plateau (heparanase; HADP 5 μM, heparanase 1 μg): 2.5 h | time at which the enzymatic reaction was completed after addition of heparanase (heparanase; heparanase 2 μg, 5 μM probe): 40 min | selectivity for heparanase over other competitive analytes [2]: excellent selectivity | fluorescence increase upon addition of other molecules and enzymes ([2]; 5 μM, superphysiological levels, 4 h, 37° C.): no fluorescence increase
SMILES: Cc1cc(=O)oc2c(F)c(O[C@@H]3O[C@H](C(=O)O)[C@@H](O[C@H]4O[C@H](CO)[C@@H](O)[C@H](O)[C@H]4NS(=O)(=O)O)[C@H](O)[C@H]3O)c(F)cc12 [Compound 1]
fluorescence change (Chondroitinase ABC): did not afford obvious fluorescence change | fluorescence change [1]: No fluorescence change | fluorescence change (Hyaluronidase): did not afford obvious fluorescence change
